# Measurements: patent US8865756B2, “Inhibitors of HCV NS5A” (Presidio Pharmaceuticals, Inc., priority 2008, dated 2014)
# Test system: HCV 1b_Huh-Luc/Neo-ET cell line persistently expressing a bicistronic genotype 1b replicon in Huh 7 cells
# Assay: HCV replicon assay (luciferase readout)
# Assay type: cell-based
# Details: Hepatitis C virus, Huh-7, 72 h, read-out: Inhibition of HCV genotype 1b
# How it was run: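 Huh 7 cells carrying a genotype 1b luciferase/neo replicon treated in triplicate for 72 h, then luciferase activity measured. Signal expressed as % of control; EC50 from four-parameter logistic fit, determined several times.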
smiles,measurement,value
COC(=O)N[C@H](C(=O)N1CCC[C@H]1c1ncc(-c2ccc(C#Cc3ccc(-c4cnc([C@@H]5CCCN5C(=O)[C@@H](c5ccccc5)N5CCOC5=O)[nH]4)cc3)cc2)[nH]1)C(C)C [Compound 1007],EC50,< 1 nM
COC(=O)N[C@@H](C)C(=O)N1CCC[C@H]1c1ncc(-c2ccc(C#Cc3ccc(-c4cnc([C@@H]5CCCN5C(=O)[C@@H](c5ccccc5)N5CCOC5=O)[nH]4)cc3)cc2)[nH]1 [Compound 1008],EC50,< 1 nM
COC(=O)N[C@@H](C(=O)N1CCC[C@H]1c1ncc(-c2ccc(C#Cc3ccc(-c4cnc([C@@H]5CCCN5C(=O)[C@H](NC(=O)OC)c5ccccc5)[nH]4)cn3)cc2)[nH]1)c1ccccc1 [Compound 1010],EC50,< 1 nM
COC(=O)NC(C(=O)N1CCC[C@H]1c1ncc(-c2ccc(C#Cc3ccc(-c4cnc([C@@H]5CCCN5C(=O)[C@@H](NC(=O)OC)C(C)C)[nH]4)c(F)c3)cc2)[nH]1)C(C)C (stereo partly drawn) [Compound 1011],EC50,< 1 nM
COC(=O)N[C@H](C(=O)N1CCC[C@H]1c1ncc(-c2ccc(C#Cc3ccc(-c4cnc([C@@H]5CCCN5C(=O)[C@@H](NC(=O)OC)C5CCOCC5)[nH]4)c(F)c3)cc2)[nH]1)C1CCOCC1 [Compound 1012],EC50,< 1 nM
COC(=O)N[C@@H](C(=O)N1CCC[C@H]1c1ncc(-c2ccc(C#Cc3ccc(-c4cnc([C@@H]5CCCN5C(=O)[C@H](NC(=O)OC)c5ccccc5)[nH]4)c(F)c3)cc2)[nH]1)c1ccccc1 [Compound 1013],EC50,< 1 nM
O=C(N[C@@H](C(=O)N1CCC[C@H]1c1ncc(-c2ccc(C#Cc3ccc(-c4cnc([C@@H]5CCCN5C(=O)[C@H](NC(=O)OC5CCOCC5)c5ccccc5)[nH]4)c(F)c3)cc2)[nH]1)c1ccccc1)OC1CCOCC1 [Compound 1014],EC50,< 1 nM
COC(=O)N[C@H](C(=O)N1CCC[C@H]1c1ncc(-c2ccc(C#Cc3ccc4nc([C@@H]5CCCN5C(=O)[C@@H](C(C)C)N(C)C)[nH]c4c3)cc2)[nH]1)C(C)C [Compound 1020],EC50,< 1 nM
COC(=O)N[C@H](C(=O)N1CCC[C@H]1c1ncc(-c2ccc(C#Cc3ccc4nc([C@@H]5CCCN5C(=O)[C@H](C(C)C)N(C)C)[nH]c4c3)cc2)[nH]1)C(C)C [Compound 1021],EC50,< 1 nM
COC(=O)N[C@H](C(=O)N1CCC[C@H]1c1nc2ccc(C#Cc3ccc(-c4cnc([C@@H]5CCCN5C(=O)[C@H](NC(=O)OC)c5ccccc5)[nH]4)cc3)cc2[nH]1)C(C)C [Compound 1022],EC50,< 1 nM
COC(=O)N[C@H](C(=O)N1CCC[C@H]1c1ncc(-c2ccc(C#Cc3ccc4nc([C@@H]5CCCN5C(=O)[C@H](NC(=O)OC)c5ccccc5)[nH]c4c3)cc2)[nH]1)C(C)C [Compound 1023],EC50,< 1 nM
CC[C@@H](C)[C@H](NC(=O)OC)C(=O)N1CCC[C@H]1c1ncc(-c2ccc(C#Cc3ccc4nc([C@@H]5CCCN5C(=O)[C@@H](NC(=O)OC)[C@H](C)CC)[nH]c4c3)cc2)[nH]1 [Compound 1024],EC50,< 1 nM
COC(=O)N[C@H](C(=O)N1CCC[C@H]1c1ncc(-c2ccc(C#Cc3ccc4nc([C@@H]5CCCN5C(=O)[C@@H](NC(=O)OC)C5CCCC5)[nH]c4c3)cc2)[nH]1)C1CCCC1 [Compound 1025],EC50,< 1 nM
COC(=O)N[C@H](C(=O)N1CSC[C@H]1c1ncc(-c2ccc(C#Cc3ccc4nc([C@@H]5CCCN5C(=O)[C@@H](NC(=O)OC)C(C)C)[nH]c4c3)cc2)[nH]1)C(C)C [Compound 1026],EC50,< 1 nM
COC(=O)N[C@H](C(=O)N1CCOC[C@H]1c1ncc(-c2ccc(C#Cc3ccc4nc([C@@H]5CCCN5C(=O)[C@@H](NC(=O)OC)C(C)C)[nH]c4c3)cc2)[nH]1)C(C)C [Compound 1027],EC50,< 1 nM
COC(=O)N[C@@H](C)C(=O)N1CCC[C@H]1c1ncc(-c2ccc(C#Cc3ccc4nc([C@@H]5CCCN5C(=O)[C@H](C)NC(=O)OC)[nH]c4c3)cc2)[nH]1 [Compound 1028],EC50,< 1 nM
COC(=O)N[C@H](C(=O)N1CCC[C@H]1c1ncc(-c2ccc(C#Cc3ccc4nc([C@@H]5CCCN5C(=O)[C@@H](NC(=O)OC)C5CC5)[nH]c4c3)cc2)[nH]1)C1CC1 [Compound 1029],EC50,< 1 nM
CCC(CC)[C@H](NC(=O)OC)C(=O)N1CCC[C@H]1c1ncc(-c2ccc(C#Cc3ccc4nc([C@@H]5CCCN5C(=O)[C@@H](NC(=O)OC)C(CC)CC)[nH]c4c3)cc2)[nH]1 [Compound 1030],EC50,< 1 nM
COC(=O)N[C@H](C(=O)N1CCC[C@H]1c1ncc(-c2ccc(C#Cc3ccc4nc([C@@H]5CCCN5C(=O)[C@@H](NC(=O)OC)[C@H](C)O)[nH]c4c3)cc2)[nH]1)[C@H](C)O [Compound 1031],EC50,< 1 nM
COC(=O)N[C@H](C(=O)N1CCCC[C@H]1c1ncc(-c2ccc(C#Cc3ccc4nc([C@@H]5CCCN5C(=O)[C@@H](NC(=O)OC)C(C)C)[nH]c4c3)cc2)[nH]1)C(C)C [Compound 1032],EC50,< 1 nM
COC(=O)N[C@H](C(=O)N1CCC[C@H]1c1ncc(-c2ccc(C#Cc3ccc4nc([C@@H]5CCCN5C(=O)[C@@H](NC(=O)OC)C(C)C)[nH]c4c3)nc2)[nH]1)C(C)C [Compound 1033],EC50,< 1 nM
CC(C)(C)OC(=O)N1CCCC1c1ncc(-c2ccc(C#Cc3ccc4nc([C@@H]5CCCN5C(=O)OC(C)(C)C)[nH]c4c3)cc2)[nH]1 (stereo partly drawn) [Compound 1034],EC50,1 to 9.9 nM
C(#Cc1ccc2nc([C@@H]3CCCN3)[nH]c2c1)c1ccc(-c2cnc([C@@H]3CCCN3)[nH]2)cc1 [Compound 1035],EC50,10 to 999 nM
CC[C@H](NC(=O)OC)C(=O)N1CCC[C@H]1c1ncc(-c2ccc(C#Cc3ccc4nc([C@@H]5CCCN5C(=O)[C@H](CC)NC(=O)OC)[nH]c4c3)cc2)[nH]1 [Compound 1036],EC50,< 1 nM
COC[C@H](NC(=O)OC)C(=O)N1CCC[C@H]1c1ncc(-c2ccc(C#Cc3ccc4nc([C@@H]5CCCN5C(=O)[C@H](COC)NC(=O)OC)[nH]c4c3)cc2)[nH]1 [Compound 1037],EC50,< 1 nM
O=S(=O)(c1ccccc1)N1CCC[C@H]1c1ncc(-c2ccc(C#Cc3ccc4nc([C@@H]5CCCN5S(=O)(=O)c5ccccc5)[nH]c4c3)cc2)[nH]1 [Compound 1038],EC50,> 1000 nM
CC(C)[C@@H](C(=O)N1CCC[C@H]1c1ncc(-c2ccc(C#Cc3ccc4nc([C@@H]5CCCN5C(=O)[C@H](C(C)C)N5CCOC5=O)[nH]c4c3)cc2)[nH]1)N1CCOC1=O [Compound 1039],EC50,1 to 9.9 nM
COC(=O)N[C@H](C(=O)N1C[C@H](F)C[C@H]1c1ncc(-c2ccc(C#Cc3ccc4nc([C@@H]5CCCN5C(=O)[C@@H](NC(=O)OC)C(C)C)[nH]c4c3)cc2)[nH]1)C(C)C [Compound 1040],EC50,< 1 nM
COC(=O)N[C@H](C(=O)N1CCC[C@H]1c1ncc(-c2ccc(C#Cc3ccc4nc([C@@H]5CCCN5C(=O)[C@@H](NC(=O)OC)C(C)(C)C)[nH]c4c3)cc2)[nH]1)C(C)(C)C [Compound 1041],EC50,< 1 nM
O=S(=O)(Cc1ccccc1)N1CCC[C@H]1c1ncc(-c2ccc(C#Cc3ccc4nc([C@@H]5CCCN5S(=O)(=O)Cc5ccccc5)[nH]c4c3)cc2)[nH]1 [Compound 1042],EC50,> 1000 nM
COC(=O)NC1(C(=O)N2CCC[C@H]2c2ncc(-c3ccc(C#Cc4ccc5nc([C@@H]6CCCN6C(=O)C6(NC(=O)OC)CC6)[nH]c5c4)cc3)[nH]2)CC1 [Compound 1043],EC50,10 to 999 nM
COC(=O)NC1(C(=O)N2CCC[C@H]2c2ncc(-c3ccc(C#Cc4ccc5nc([C@@H]6CCCN6C(=O)C6(NC(=O)OC)CCCC6)[nH]c5c4)cc3)[nH]2)CCCC1 [Compound 1044],EC50,10 to 999 nM
COC(=O)N[C@@H](Cc1ccccc1)C(=O)N1CCC[C@H]1c1ncc(-c2ccc(C#Cc3ccc4nc([C@@H]5CCCN5C(=O)[C@H](Cc5ccccc5)NC(=O)OC)[nH]c4c3)cc2)[nH]1 [Compound 1045],EC50,< 1 nM
COC(=O)N[C@@H](CC(N)=O)C(=O)N1CCC[C@H]1c1ncc(-c2ccc(C#Cc3ccc4nc([C@@H]5CCCN5C(=O)[C@H](CC(N)=O)NC(=O)OC)[nH]c4c3)cc2)[nH]1 [Compound 1046],EC50,1 to 9.9 nM
COC(=O)N[C@@H](CCC(=O)O)C(=O)N1CCC[C@H]1c1ncc(-c2ccc(C#Cc3ccc4nc([C@@H]5CCCN5C(=O)[C@H](CCC(=O)O)NC(=O)OC)[nH]c4c3)cc2)[nH]1 [Compound 1047],EC50,10 to 999 nM
COC(=O)N[C@@H](Cc1cnc[nH]1)C(=O)N1CCC[C@H]1c1ncc(-c2ccc(C#Cc3ccc4nc([C@@H]5CCCN5C(=O)[C@H](Cc5cnc[nH]5)NC(=O)OC)[nH]c4c3)cc2)[nH]1 [Compound 1048],EC50,1 to 9.9 nM
COC(=O)NCC(=O)N1CCC[C@H]1c1ncc(-c2ccc(C#Cc3ccc4nc([C@@H]5CCCN5C(=O)CNC(=O)OC)[nH]c4c3)cc2)[nH]1 [Compound 1049],EC50,10 to 999 nM
COC(=O)NC(C)(C)C(=O)N1CCC[C@H]1c1ncc(-c2ccc(C#Cc3ccc4nc([C@@H]5CCCN5C(=O)C(C)(C)NC(=O)OC)[nH]c4c3)cc2)[nH]1 [Compound 1050],EC50,10 to 999 nM
COC(=O)N[C@@H](CCC(N)=O)C(=O)N1CCC[C@H]1c1ncc(-c2ccc(C#Cc3ccc4nc([C@@H]5CCCN5C(=O)[C@H](CCC(N)=O)NC(=O)OC)[nH]c4c3)cc2)[nH]1 [Compound 1051],EC50,1 to 9.9 nM
C(#Cc1ccc2nc([C@@H]3CCCN3Cc3ccccc3)[nH]c2c1)c1ccc(-c2cnc([C@@H]3CCCN3Cc3ccccc3)[nH]2)cc1 [Compound 1052],EC50,> 1000 nM
COC(=O)N[C@H](C(=O)N1CCC[C@H]1c1nc2ccc(C#Cc3ccc(-c4cnc([C@@H]5CCCN5C(=O)[C@H](NC(=O)OC)C(C)C)[nH]4)cc3)cc2[nH]1)C(C)C [Compound 1053],EC50,< 1 nM
COC(=O)N[C@H](C(=O)N1CCC[C@H]1c1ncc(-c2ccc(C#Cc3ccc4nc([C@@H]5CCCN5C(=O)[C@H](NC(=O)OC)C(C)C)[nH]c4c3)cc2)[nH]1)C(C)C [Compound 1054],EC50,< 1 nM
COC(=O)N[C@H](C(=O)N1CCC[C@H]1c1nc2ccc(C#Cc3ccc(-c4cnc([C@@H]5CCCN5)[nH]4)cc3)cc2[nH]1)C(C)C [Compound 1055],EC50,10 to 999 nM
COC(=O)N[C@H](C(=O)N1CCC[C@H]1c1ncc(-c2ccc(C#Cc3ccc4nc([C@@H]5CCCN5)[nH]c4c3)cc2)[nH]1)C(C)C [Compound 1056],EC50,10 to 999 nM
COC(=O)N[C@@H](Cc1c[nH]c2ccccc12)C(=O)N1CCC[C@H]1c1ncc(-c2ccc(C#Cc3ccc4nc([C@@H]5CCCN5C(=O)[C@H](Cc5c[nH]c6ccccc56)NC(=O)OC)[nH]c4c3)cc2)[nH]1 [Compound 1057],EC50,< 1 nM
